The record followed here is patent publication US11690850B2, “Inhibitors of receptor interacting protein kinase I for the treatment of disease” (Board of Regents, The University of Texas System, priority 2019, dated 2023).

SMILES strings stand for the structures.

In test [1] the test system is human monocytic cell line U937. In words: Human U937 Cellular Necroptosis Assay. Type of test: cell-based. The conditions noted are these: U-937; U937 cells stimulated with 25 ng/mL human TNFalpha and 25 μM z-VAD-FMK, 22 hr, viability by Cell Titer-Glo 2.0; average value across multiple runs; read-out: hU937 IC50.
Another test addresses RIPK1 (Homo sapiens (Human), UniProt Q13546). Kind of test: ADP-Glo Kinase Assay. The format is biochemical. As to conditions: 5 nM RIPK1 protein, 50 μM ATP, 6 hr reaction, average value across multiple runs. An outline of the steps: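 ADP formed from ATP is measured by ADP-Glo luminescence with 5 nM RIPK1, preincubated 10 min with compound, then 50 μM ATP for 6 h. Buffer is 50 mM HEPES pH 7.5, 50 mM NaCl, 30 mM MgCl2, 1 mM DTT, 0.05% BSA, 0.02% CHAPS. IC50 comes from a four-parameter fit, averaged over runs.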

Sequence of RIPK1 (Q13546 1-327): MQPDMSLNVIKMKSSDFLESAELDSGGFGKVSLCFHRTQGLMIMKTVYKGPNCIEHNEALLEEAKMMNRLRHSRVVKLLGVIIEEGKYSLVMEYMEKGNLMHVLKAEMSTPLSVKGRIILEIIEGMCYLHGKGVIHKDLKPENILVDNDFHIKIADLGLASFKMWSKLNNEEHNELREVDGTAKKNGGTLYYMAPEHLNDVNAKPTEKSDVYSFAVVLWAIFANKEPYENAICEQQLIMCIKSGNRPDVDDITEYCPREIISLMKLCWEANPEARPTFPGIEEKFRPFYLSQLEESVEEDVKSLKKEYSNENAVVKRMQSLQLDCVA

On to `Cc1cc(=O)c(C(=O)NC2CCc3ccccc3N(C)C2=O)nn1-c1ccccc1` (stereo not drawn) [Example 41, 6-methyl-N-(1-methyl-2-oxo-2,3,4,5-tetrahydro-1H-benzo[b]azepin-3-yl)-4-oxo-1-phenyl-1,4-dihydropyridazine-3-carboxamide], for which the IC50 in test [1] turned out to be 0.039 µM; at RIPK1 it was 0.035 µM.

Regarding `Cc1cc(=O)c(C(=O)NC2CCc3ccccc3NC2=O)nn1-c1ccccc1` (stereo not drawn) [Example 38, 6-Methyl-4-oxo-N-(2-oxo-2,3,4,5-tetrahydro-1H-benzo[b]azepin-3-yl)-1-phenyl-1,4-dihydropyridazine-3-carboxamide], the half-maximal inhibitory concentration (IC50) in test [1] came out at 0.082 µM; at RIPK1, 0.057 µM.

For `Cc1cc(=O)c(C(=O)NC2CCc3cc(F)cc(F)c3N(C)C2=O)nn1-c1ccccc1` (stereo not drawn) [Example 49, N-(7,9-difluoro-1-methyl-2-oxo-2,3,4,5-tetrahydro-1H-benzo[b]azepin-3-yl)-6-methyl-4-oxo-1-phenyl-1,4-dihydropyridazine-3-carboxamide], the half-inhibitory concentration (IC50) in test [1] is 0.066 µM; at RIPK1, 0.064 µM.

As to `Cc1cc(=O)c(C(=O)NC2CCc3ccccc3NC2=O)nn1-c1cccc(Cl)c1` (stereo not drawn) [Example 68, 1-(3-chlorophenyl)-6-methyl-4-oxo-N-(2-oxo-2,3,4,5-tetrahydro-1H-benzo[b]-azepin-3-yl)-1,4-dihydropyridazine-3-carboxamide], the results for the half-maximal inhibitory concentration (IC50) (in test [1]; at RIPK1) were 0.143 µM and 0.0578 µM, respectively.

Turning to `Cc1c(Br)c(=O)c(C(=O)NC2CCc3cc(Br)ccc3NC2=O)nn1-c1ccccc1` (stereo not drawn) [Example 43, 5-Bromo-N-(7-bromo-2-oxo-2,3,4,5-tetrahydro-1H-benzo[b]azepin-3-yl)-6-methyl-4-oxo-1-phenyl-1,4-dihydropyridazine-3-carboxamide], the values for the IC50 (in test [1]; on RIPK1) were 0.048 µM and 0.023 µM, respectively.

On to `Cc1ccc(-n2nc(C(=O)NC3CCc4ccccc4NC3=O)c(=O)cc2C)cn1` (stereo not drawn) [Example 51, 6-methyl-1-(6-methylpyridin-3-yl)-4-oxo-N-(2-oxo-2,3,4,5-tetrahydro-1H-benzo[b]azepin-3-yl)-1,4-dihydro-pyridazine-3-carboxamide], for which the half-inhibitory concentration (IC50) came to 1.7 µM in test [1] and 1.97 µM at RIPK1.
